Measurements: PubChem BioAssay (NCI)
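Cultured in 96-well plates, cells were exposed to test compound for 48 hours across five concentrations. GI50 is the concentration that inhibits growth by half. TGI: total growth inhibition.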

Assays:
Experiment in all cases: DTP human tumour cell line panel, 48 h
A549 NSCLC = tested on: A549 NSCLC
HS 578T breast = tested on: HS 578T breast
PC-3 prostate = tested on: PC-3 prostate
RPMI-8226 leukemia = tested on: RPMI-8226 leukemia
SK-MEL-28 melanoma = tested on: SK-MEL-28 melanoma
SNB-19 CNS = tested on: SNB-19 CNS
SNB-75 CNS = tested on: SNB-75 CNS
SR leukemia = tested on: SR leukemia
T-47D breast = tested on: T-47D breast
U251 CNS = tested on: U251 CNS

Row | Structure (SMILES) | GI50 (A549 NSCLC) | TGI (A549 NSCLC) | GI50 (HS 578T breast) | TGI (HS 578T breast) | GI50 (PC-3 prostate) | TGI (PC-3 prostate) | GI50 (RPMI-8226 leukemia) | TGI (RPMI-8226 leukemia) | GI50 (SK-MEL-28 melanoma) | TGI (SK-MEL-28 melanoma) | GI50 (SNB-19 CNS) | TGI (SNB-19 CNS) | GI50 (SNB-75 CNS) | TGI (SNB-75 CNS) | GI50 (SR leukemia) | TGI (SR leukemia) | GI50 (T-47D breast) | TGI (T-47D breast) | GI50 (U251 CNS) | TGI (U251 CNS)
1 | COc1ccccc1/C=N\N/C(N)=N\N=C\c1ccccc1OC | 1.55 µM | > 100 µM | 0.447 µM | 38.7 µM | 0.476 µM | > 66.2 µM | 0.281 µM | 0.806 µM | 2.64 µM | 28.4 µM | 0.376 µM | 27.7 µM | 0.149 µM | > 48.5 µM | 0.0319 µM | 0.74 µM | 0.457 µM | 7.36 µM | 1.02 µM | > 39.9 µM
2 | COC(=O)COc1ccccc1/C=C1\N=C(c2ccccc2)N(c2cc(C(F)(F)F)ccc2Cl)C1=O | 97.4 µM | > 100 µM | 35.6 µM | > 100 µM | 32.5 µM | > 100 µM | 24.9 µM | 72.7 µM | 47.6 µM | > 100 µM | 43.5 µM | > 100 µM | 34.4 µM | > 100 µM | 24 µM | 70.5 µM | 29.1 µM | > 100 µM | 55.9 µM | > 100 µM
3 | CCOC(=O)c1ccc(NC(=O)Oc2ccc3c(C)cc(=O)oc3c2)cc1 |  | > 100 µM |  | 84.1 µM |  | > 100 µM |  | 72.9 µM |  | > 100 µM |  | > 100 µM |  | 98.1 µM |  | 54.2 µM |  | 78 µM |  | > 100 µM
4 | O=C(Nc1ccc(Nc2ccncc2)cc1)c1ccc([N+](=O)[O-])cc1 | 10 µM | 33.1 µM | 5.8 µM | 25.9 µM | 13.7 µM | > 56.6 µM | 2.5 µM | 17 µM | 5 µM | 16.7 µM | 4.47 µM | 20.7 µM | 4.26 µM | 20 µM | 2.32 µM | > 20.4 µM | 3.3 µM | 20 µM | 2.49 µM | 7.12 µM
5 | CN1CCN(C2CCN(C(=O)Nc3cc(Oc4ccc(NC(=O)C5(C(=O)Nc6ccc(F)cc6)CC5)c(F)c4)ccn3)CC2)CC1 | 1.38 µM | > 10 µM | 0.688 µM | > 2.52 µM | 1.01 µM | > 3.84 µM | 1.62 µM | > 2.63 µM | 0.771 µM | 2.28 µM | 0.354 µM | > 10 µM | 0.365 µM | > 1.97 µM | 0.53 µM | 1.77 µM | 5.56 µM | > 10 µM |  | > 10 µM
6 | CC1(C)S[C@@H]2[C@H](NC(=O)C3(N)CCCCC3)C(=O)N2[C@H]1C(=O)O |  | > 100 µM |  | > 100 µM |  | > 100 µM |  | > 100 µM |  | > 100 µM |  | > 100 µM |  | > 100 µM |  | > 100 µM |  | > 100 µM |  | > 100 µM
7 | O=C(O)COc1ccc2c(=O)c3sc4c(=O)c5ccccc5c(=O)c4c3c(=O)c2c1 | 11.2 µM | 26.5 µM | 3.4 µM | 19.2 µM | 26.8 µM | > 100 µM | 27.6 µM | 77.6 µM | 8.19 µM | 28.6 µM | 7.51 µM | 23.7 µM | 2.06 µM | 11.7 µM | 32.8 µM | > 100 µM | 21.4 µM | 50.9 µM | 13.7 µM | 32.8 µM
